49 compounds from US11952387B2, “Bicyclic heteroaromatic ring derivative” (priority 2018, dated 2024) can be followed below.

A value given as a limit tells only on which side of the number the result lay.

The test system of the test is HRV14. As to the kind of experiment: Inhibitory activity against human rhinovirus infection and replication (quantitative real-time PCR). The settings on record: Human rhinovirus sp., MRC5; 100 nmol/L test compound; MRC-5 cells infected with HRV14 at MOI=0.2; 48 hours; viral load normalized to 18s rRNA; read-out: Percent Inhibition. It is filed as cell-based. As for the experimental part:
Evaluation of inhibitory activity against human rhinovirus infection and replication (by quantitative real-time PCR)
A required amount of a test compound was weighed off and dissolved in dimethyl sulfoxide (DMSO) to yield a 10 mmol/L stock solution. Next, the stock solution was diluted with a medium for viral infection (minimum essential medium (MEM) supplemented with 2% fetal bovine serum, 5% Tryptose phosphate broth, and 30 mmol/L MgCl2) to prepare 100 nmol/L and 1000 nmol/L of test compound solutions. MRC-5 (human fetal lung fibroblast: ATCC) was suspended at a density of 30000 cells/mL in cell culture medium (MEM supplemented with 10% fetal bovine serum), and 625 μL of the suspension per well was seeded into a 24-well cell culture plate and cultured at 37° C. in 5% CO2. After 72 hours, it was confirmed that the plate had become 80% confluent. The plate was washed with 625 μL of phosphate-buffered physiological saline (Ca/Mg-free; PBS-) once, and 625 μL of the test compound solution prepared just before use was immediately added to the plate. After 30 minutes, the medium was removed followed by addition of 187.5 μL of the test compound solution that had been prepared such that the cells were infected with HRV14 (ATCC) at multiplicity of infection (MOI)=0.2. The cells were then cultured at 35° C. in 5% CO2. After additional 2 hours, 625 μL of the test compound solution prepared just before use was added, and the cells were cultured at 35° C. in 5% CO2. After 48 hours, the cells were washed with 625 μL of PBS- once, and total RNA was extracted from the cells using RNeasy (R) plus kit (Qiagen) according to the manufacturer's instruction. Subsequently, cDNA was synthesized using High-Capacity cDNA Reverse Transcription Kit (Thermo Fisher Scientific). Finally, quantitative real-time PCR was performed in 7500 Fast Real-time PCR system (Life technologies) to measure HRV14 and 18s rRNA. The measurement protocol consisted of the initial denaturation phase at 95° C. for 20 seconds followed by 40 cycles of the denaturation step at 95° C. for 3 seconds and the annealing/elongation step at 60° C. for 30 seconds. The primers used were HRV14 forward primer set forth in SEQ ID NO: 1 and HRV14 reverse primer set forth in SEQ ID NO: 2, and the probe is set forth in SEQ ID NO: 3.
18s rRNA was measured using Eukaryotic 18S rRNA Endogenous Control (Applied Biosystems). According to Equation 1, 18s ribosomal RNA was used as an internal standard to normalize the viral load of HRV14: Viral load of HRV14=The amount of HRV14 in virus-infected cells/the amount of 18s rRNA in virus-infected cells Equation 1
Inhibitory activity of test compounds was calculated as a percent inhibition (%) according to Equation 2: Percent inhibition (%)=[the viral load of HRV in virus-infected cells in the absence of the test compound −the viral load of HRV in virus-infected cells in the presence of the test compound]/[the viral load of HRV in virus-infected cells in the absence of the test compound]×100 Equation 2
The results of using 100 nmol/L test compound solutions were shown in the tables below according to Examples. In the tables, percent inhibition was expressed as follows: percent inhibition >80%: +++, 80%≥percent inhibition >50%: ++, and 50%≥percent inhibition:+.
Background: Real-time PCR tracks product formation cycle by cycle.
As usually defined, the inhibition is the share of the control response that was lost under treatment. Regarding `COc1ccc(-c2c(C)nc3sc(C4(OC)CCCC4)cn23)cc1S(=O)(=O)N[C@H]1CC[C@@H](O)CC1` [Example 1-45], the inhibition at 0.1 µM was > 80%.

Consider `COc1ccc(-c2c(C)nc3sc(C(C)C)cn23)cc1S(=O)(=O)N[C@H]1CC[C@@H](O)CC1` [Example 1-46], for which the inhibition at 0.1 µM is > 80%. Then `COc1ccc(-c2c(C)nc3sc(C4(OC)CC4)cn23)cc1S(=O)(=O)N[C@H]1CC[C@@H](O)CC1` [Example 1-47], with 50 to 80%.

For the compound `COc1ccc(-c2c(C)nc3sc(C4CC4)cn23)cc1S(=O)(=O)N[C@H]1CC[C@@H](O)CC1` [Example 1-48], the inhibition at 0.1 µM is 50 to 80%. In the case of `COc1ccc(-c2c(C)nc3sc(C(C)(C)C)cn23)cc1S(=O)(=O)N[C@H]1CC[C@@H](O)CC1` [Example 1-49], the inhibition at 0.1 µM is > 80%.

With `COc1ccc(-c2c(C)nc3sc(C(C)(C)OC)cn23)cc1S(=O)(=O)Nc1ccc(F)cc1` [Example 1-50], the inhibition at 0.1 µM was > 80%. With `COc1ccc(-c2c(C)nc3sc(C)cn23)cc1S(=O)(=O)Nc1ccc(F)cc1` [Example 1-51] the figure was 50 to 80%; with `COc1ccc(-c2c(C)nc3sccn23)cc1S(=O)(=O)Nc1ccc(F)cc1` [Example 1-52], ≤ 50%; with `COc1ccc(-c2c(C)nc3sc(C(O)(C4CC4)C4CC4)nn23)cc1S(=O)(=O)CC(C)(C)O` [Example 1-53], > 80%.

As to `COc1ccc(-c2c(C)nc3sc(C(C)(C)O)cn23)cc1S(=O)(=O)N[C@H]1CC[C@@H](OC)CC1` [Example 2-2], the inhibition at 0.1 µM is ≤ 50%.

As to `COc1c(F)cc(-c2c(C)nc3sc(C(C)(C)C)cn23)cc1S(=O)(=O)N[C@H]1CC[C@@H](O)CC1` [Example 2-3], the inhibition at 0.1 µM is > 80%.

For the compound `COc1ccc(-c2c(C)nc3sc(C(C)(C)O)cn23)cc1S(=O)(=O)NC(C)(C)CO` [Example 2-4], the inhibition at 0.1 µM is ≤ 50%. With `Cc1nc2sc(C(C)(C)O)cn2c1-c1ccc(N(C)C)c(S(=O)(=O)N[C@H]2CC[C@@H](O)CC2)c1` [Example 2-5] the figure was ≤ 50%; with `Cc1nc2sc(C(C)(C)O)nn2c1-c1ccc(C#N)c(S(=O)(=O)N[C@H]2CC[C@H](O)CC2)c1` [Example 2-6], ≤ 50%. Take `Cc1nc2sc(C(C)(C)O)nn2c1-c1ccc(OC(F)(F)F)c(S(=O)(=O)N[C@H]2CC[C@H](O)CC2)c1` [Example 2-7]: the inhibition at 0.1 µM is > 80%.

For `COc1c(F)cc(-c2c(C)nc3sc(C(C)(C)O)nn23)cc1S(=O)(=O)N[C@H]1CC[C@H](O)CC1` [Example 2-8], the inhibition at 0.1 µM is > 80%.

Turning to `Cc1nc2sc(C(C)(C)O)nn2c1-c1ccc(C(F)(F)F)c(S(=O)(=O)N(C)[C@H]2CC[C@H](O)CC2)c1` [Example 2-9], the inhibition at 0.1 µM was > 80%. Then `Cc1nc2sc(C(C)(C)O)nn2c1-c1ccc(C(F)(F)F)c(S(=O)(=O)NC23CCC(O)(CC2)CC3)c1` [Example 2-10], with > 80%; and `Cc1nc2sc(C(C)(C)O)nn2c1-c1cnc(C(F)(F)F)c(S(=O)(=O)N[C@H]2CC[C@H](O)CC2)c1` [Example 2-11], with ≤ 50%; and `COc1ccc(-c2c(C)nc3sc(C(C)(C)O)nn23)cc1S(=O)(=O)CCO` [Example 2-12], with ≤ 50%. Then `COc1ccc(-c2c(C)nc3sc(C(C)(C)O)nn23)cc1S(C)(=O)=O` [Example 2-13], with ≤ 50%; and `Cc1nc2sc(C(C)(C)O)nn2c1-c1ccc(C(F)(F)F)c(S(=O)(=O)CCO)c1` [Example 2-14], with ≤ 50%; and `Cc1nc2sc(C3CC3)nn2c1-c1ccc(C(F)(F)F)c(S(=O)(=O)CCO)c1` [Example 2-15], with 50 to 80%.

In the case of `Cc1nc2sc(C(C)(C)O)nn2c1-c1ccc(C(F)(F)F)c(S(=O)(=O)N[C@H]2C[C@H](O)C2)c1` [Example 2-16], the inhibition at 0.1 µM was > 80%.

As for `Cc1nc2sc(C(C)(C)O)nn2c1-c1ccc(C(F)(F)F)c(S(=O)(=O)N[C@H]2C[C@@H](O)C2)c1` [Example 2-17], the inhibition at 0.1 µM is > 80%. With `Cc1nc2sc(C(C)(C)O)nn2c1-c1ccc(C(F)(F)F)c(S(=O)(=O)N[C@]2(C)C[C@@H](O)C2)c1` [Example 2-18] the figure was > 80%.

As for `Cc1nc2sc(C(C)(C)O)nn2c1-c1ccc(C(F)(F)F)c(S(=O)(=O)N[C@]2(C)C[C@H](O)C2)c1` [Example 2-19], the inhibition at 0.1 µM was > 80%.

Regarding `Cc1nc2sc(C(C)(C)O)nn2c1-c1ccc(C(F)(F)F)c(S(=O)(=O)NC2(CO)CC2)c1` [Example 2-20], the inhibition at 0.1 µM is > 80%.

Take `Cc1nc2sc(C(C)(C)O)nn2c1-c1ccc(C(F)(F)F)c(S(=O)(=O)NCC(C)(C)O)c1` [Example 2-21]: the inhibition at 0.1 µM was > 80%. With `Cc1nc2sc(C(C)(C)O)nn2c1-c1ccc(C(F)(F)F)c(S(=O)(=O)NC2COC2)c1` [Example 2-22] the figure was > 80%; with `Cc1nc2sc(C(C)(C)O)nn2c1-c1ccc(C(F)(F)F)c(S(=O)(=O)CC2CC(O)C2)c1` (stereo not shown) [Example 2-23], 50 to 80%.

With `CC(=O)N1CC(NS(=O)(=O)c2cc(-c3c(C)nc4sc(C(C)(C)O)nn34)ccc2C(F)(F)F)C1` [Example 2-24], the inhibition at 0.1 µM is ≤ 50%.

As for `COc1ccc(-c2c(C)nc3sc(C(C)(C)O)nn23)cc1S(=O)(=O)C(C)C` [Example 2-25], the inhibition at 0.1 µM was ≤ 50%. In the case of `Cc1nc2sc(C(C)(C)O)nn2c1-c1ccc(C(F)(F)F)c(S(=O)(=O)CC2(C)COC2)c1` [Example 2-26], the inhibition at 0.1 µM is > 80%. Then `Cc1nc2sc(C(C)(C)O)nn2c1-c1ccc(C(F)(F)F)c(S(=O)(=O)CC(C)(C)O)c1` [Example 2-27], with > 80%; and `Cc1nc2sc(C(C)(C)O)nn2c1-c1ccc(C(F)(F)F)c(S(=O)(=O)C2COC2)c1` [Example 2-28], with > 80%. Then `COc1c(F)cc(-c2c(C)nc3sc(C(C)(C)O)nn23)cc1S(=O)(=O)NC(C)(C)CO` [Example 2-29], with > 80%; and `Cc1nc2sc(C(C)(C)O)nn2c1-c1ccc(C(F)(F)F)c(S(=O)(=O)NCC2(O)COC2)c1` [Example 2-30], with > 80%. Then `Cc1nc2sc(C(C)(C)O)nn2c1-c1ccc(C(F)(F)F)c(S(=O)(=O)NC2(CO)COC2)c1` [Example 2-31], with > 80%; and `Cc1nc2sc(C(C)(C)O)nn2c1-c1ccc(C(F)(F)F)c(S(=O)(=O)NC2(CO)CC(F)(F)C2)c1` [Example 2-32], with > 80%. In the case of `Cc1nc2sc(C(C)(C)O)nn2c1-c1ccc(C(F)(F)F)c(S(=O)(=O)NCC(O)C(F)(F)F)c1` (stereo not shown) [Example 2-33], the inhibition at 0.1 µM was > 80%. For `COc1ccc(-c2c(C)nc3sc(C(C)(C)O)nn23)cc1S(=O)(=O)C(C)(C)C` [Example 2-34], the inhibition at 0.1 µM was > 80%. With `Cc1nc2sc(C(C)(C)O)nn2c1-c1ccc(C(F)(F)F)c(S(=O)(=O)CC2(CO)COC2)c1` [Example 2-35] the figure was 50 to 80%; with `Cc1nc2sc(C(C)(C)O)nn2c1-c1ccc(C(F)(F)F)c(S(=O)(=O)C2CN(C(=O)OC(C)(C)C)C2)c1` [Example 2-36], > 80%; with `Cc1nc2sc(C(C)(C)O)nn2c1-c1ccc(C(F)F)c(S(=O)(=O)CC(C)(C)O)c1` [Example 2-37], 50 to 80%. For the compound `Cc1nc2sc(C(C)(C)O)nn2c1-c1cccc(S(=O)(=O)CC(C)(C)O)c1` [Example 2-38], the inhibition at 0.1 µM was ≤ 50%. In the case of `Cc1ccc(-c2c(C)nc3sc(C(C)(C)O)nn23)cc1S(=O)(=O)CC(C)(C)O` [Example 2-39], the inhibition at 0.1 µM is > 80%. With `COc1ccc(-c2c(C)nc3sc(C(C)(C)O)nn23)cc1S(=O)(=O)CC1(O)COC1` [Example 2-40] the figure was ≤ 50%; with `COc1ccc(-c2c(C)nc3sc(C(C)(C)O)nn23)cc1S(=O)(=O)CC1(C)COC1` [Example 2-41], 50 to 80%.
